From patent US6548241B1, “Storage solution containing photosensitizer for inactivation of biological contaminants” (Gambro, Inc., priority 2000, dated 2003)
Values after ≈ are worked out from the molar mass of the structure shown. Like-named read-outs stand apart in the source and are kept apart here.

Tests used:
Staphylococcus aureus = test: Log inactivation of S. aureus in platelet concentrate, irradiation at 80 J/cm^2
[1] = tested on: Staphylococcus epidermidis; test: Log inactivation of S. epidermidis in platelet concentrate, irradiation at 80 J/cm^2
Listeria monocytogenes = test: Log inactivation of Listeria monocytogenes in platelet concentrate, cuvette apparatus; format: cell-based
Protocol: Mixtures of platelet concentrates and platelet additive solutions are referred to herein as in “media.” Platelet concentrate without additive solution is referred to herein as in “plasma.” Both were spiked with Listeria monocytogenes. Vitamin K5 was then added to each in the amount of 300 μg/mL […]. Each was then exposed to UV, visible or room light in the cuvette apparatus of FIG. 5 with the results shown in Table 3.

[2] = format: physicochemical; conditions: for solubility thermodynamic at 1 h: thermodynamic from solid
Protocol: The mixture was agitated at room temperature for one hour and vortex mixed to ensure complete dissolution of the suspended material. […] This suspension was then centrifuged to remove undissolved material. The supernatant from this preparation was removed and analyzed using a spectrophotometer. The absorbance values of the solution were determined at 447 nm and 373 nm. From the extinction coefficients that were determined previously, it was possible to estimate the concentration of the saturated solution Solubility in ACD-A Anticoagulant The same procedure described above was repeated using ACD-A Anticoagulant.

HSV-II = test: Inactivation of HSV-II in platelet concentrate and PC:media with ascorbate (log virus titre); conditions: 14 μM + 6 mM ascorbate
[3] = tested on: herpes simplex virus type II (HSV-II); test: Inactivation of HSV-II in platelet concentrates at varying photosensitizer concentrations; conditions: platelet concentrate, 80 J/cm^2, all three trials
[4] = Photodecomposition in ACD-A upon exposure to UV light (365 nm); conditions: for % of Initial, 373 nm / % of Initial, 447 nm: 63 μg/mL in ACD-A, UV 365 nm

What does the source list for `Cc1cc2nc3[nH]c(=O)[nH]c(=O)c3nc2cc1C` [7-8-dimethyl alloxazine]?
Log Inactivation (cfu/mL) (Staphylococcus aureus; 7 μM in platelet concentrate): 1.6 Logs; Log Inactivation (cfu/mL) ([1]; 7 μM in platelet concentrate): 2.9 Logs

With `Cc1cc(N)c2ccccc2c1O` [K5, Vitamin K5] as the compound, how does the “Log Inactivation (cfu/mL)” value (Listeria monocytogenes; K5 300 μg/mL in Media (20:80 platelet concentrate:Isolyte S), UV 365 nm, 40 J/cm^2) read?
Its value is 4.2 Logs.

What about the “Log Inactivation (cfu/mL)” value (Listeria monocytogenes; K5 300 μg/mL in Media, Room Light) of the same compound?
The value was 0 Logs.

And the “Log Inactivation (cfu/mL)” value (Listeria monocytogenes; K5 300 μg/mL in Media, VIS 419 nm, 40 J/cm^2)?
Its value is 4.2 Logs.

And the “Log Inactivation (cfu/mL)” value (Listeria monocytogenes; K5 300 μg/mL in Plasma (platelet concentrate without additive solution), UV 365 nm, 40 J/cm^2)?
The value was 0.1 Logs.

What about the “Log Inactivation (cfu/mL)” value (Listeria monocytogenes; K5 300 μg/mL in Plasma, Room Light) of the same compound?
Its value is 0 Logs.

And the “Log Inactivation (cfu/mL)” value (Listeria monocytogenes; K5 300 μg/mL in Plasma, VIS 419 nm, 40 J/cm^2)?
Its value is 0.1 Logs.

For `Cc1cc2nc3c(=O)[nH]c(=O)nc-3n(C[C@H](O)[C@H](O)[C@H](O)COP(=O)(O)O)c2cc1C` [alloxazine mononucleotide], which “Log Inactivation (cfu/mL)” value (Staphylococcus aureus; 10 μM in platelet concentrate) is on record?
The value was 1.6 Logs.

What about the “Log Inactivation (cfu/mL)” value ([1]; 10 μM in platelet concentrate) of the same compound?
Its value is 5.6 Logs.

Which solubility thermodynamic at 1 h ([2]; ACD-A Anticoagulant, aqueous buffer, ACD-A Anticoagulant, absorbance at 373 nm, read-out: Concentration (373) of saturated solution) does the source give for `Cc1cc2nc3c(=O)[nH]c(=O)nc-3n(C[C@H](O)[C@H](O)[C@H](O)CO)c2cc1C` [7,8-dimethyl-10-ribityl isoalloxazine] here?
The solubility thermodynamic at 1 h was 63 µg/mL (≈ 167 µM).

And the solubility thermodynamic at 1 h ([2]; ACD-A Anticoagulant, aqueous buffer, ACD-A Anticoagulant, absorbance at 447 nm, read-out: Concentration (447) of saturated solution)?
The solubility thermodynamic at 1 h was 60.3 µg/mL (≈ 160 µM).

What about the “Concentration (373) of saturated solution” value ([2]; ACD-A Anticoagulant, absorbance at 373 nm) of the same compound?
Its value is 166 µM.

What about the “Concentration (447) of saturated solution” value ([2]; ACD-A Anticoagulant, absorbance at 447 nm) of the same compound?
Its value is 160 µM.

And the solubility thermodynamic at 1 h ([2]; Isolyte S media, pH 7.4, saline or isotonic, Isolyte S, pH 7.4 media, room temperature, absorbance at 373 nm, read-out: Concentration (373) of saturated solution)?
Its solubility thermodynamic at 1 h is 42 µg/mL (≈ 112 µM).

What about the solubility thermodynamic at 1 h ([2]; Isolyte S media, pH 7.4, saline or isotonic, Isolyte S, pH 7.4 media, room temperature, absorbance at 447 nm, read-out: Concentration (447) of saturated solution) of the same compound?
Its solubility thermodynamic at 1 h is 40.9 µg/mL (≈ 109 µM).

What about the “Concentration (373) of saturated solution” value ([2]; Isolyte S, pH 7.4 media, room temperature, absorbance at 373 nm) of the same compound?
The value was 110 µM.

What about the “Concentration (447) of saturated solution” value ([2]; Isolyte S, pH 7.4 media, room temperature, absorbance at 447 nm) of the same compound?
Its value is 109 µM.

What about the log virus titre (HSV-II; 30:70 PC:Media (PASIII), UV+VIS 0 J/cm^2, 0.0 Minutes) of the same compound?
Its log virus titre is 5.6.

And the log virus titre (HSV-II; 30:70 PC:Media, UV+VIS 5 J/cm^2, 1.5 Minutes)?
Its log virus titre is 2.5.

What about the log virus titre (HSV-II; 30:70 PC:Media, UV+VIS 10 J/cm^2, 3.0 Minutes) of the same compound?
The log virus titre was 2.5.

And the log virus titre (HSV-II; 30:70 PC:Media, UV+VIS 15 J/cm^2, 4.5 Minutes)?
Its log virus titre is 2.3.

What about the log virus titre (HSV-II; 30:70 PC:Media, UV+VIS 20 J/cm^2, 6.0 Minutes) of the same compound?
Its log virus titre is 1.8.

What about the log virus titre (HSV-II; 30:70 PC:Media, UV+VIS 30 J/cm^2, 9.0 Minutes) of the same compound?
The log virus titre was 1.6.

And the log virus titre (HSV-II; 90:10 PC:Media, UV+VIS 0 J/cm^2)?
The log virus titre was 5.6.

What about the log virus titre (HSV-II; 90:10 PC:Media, UV+VIS 40 J/cm^2) of the same compound?
The log virus titre was 3.3.

What about the “Log Inactivation (cfu/mL)” value (Staphylococcus aureus; 10 μM in platelet concentrate) of the same compound?
Its value is 1.9 Logs.

And the “Log Inactivation (cfu/mL)” value ([1]; 10 μM in platelet concentrate)?
Its value is 4.1 Logs.

What about the “inactivation of HSV-II” value [3] of the same compound?
The value was “complete inactivation”.

What about the “% of Initial, 373 nm” value ([4]; Irradiation Time 0) of the same compound?
Its value is 100%.

And the “% of Initial, 447 nm” value ([4]; Irradiation Time 0)?
Its value is 100%.

And the “% of Initial, 373 nm” value ([4]; Irradiation Time 5)?
The value was 87.3%.

And the “% of Initial, 447 nm” value ([4]; Irradiation Time 5)?
Its value is 61.6%.

What about the “% of Initial, 373 nm” value ([4]; Irradiation Time 10) of the same compound?
Its value is 90.5%.

And the “% of Initial, 447 nm” value ([4]; Irradiation Time 10)?
Its value is 76.6%.

And the “% of Initial, 373 nm” value ([4]; Irradiation Time 15)?
Its value is 100%.

What about the “% of Initial, 447 nm” value ([4]; Irradiation Time 15) of the same compound?
The value was 70%.

What about the “decomposition of the reagent (absorption profile at 373 nm)” value ([4]; over the entire irradiation period) of the same compound?
Its value is “no significant decomposition”.
